Laboratory results as given in patent US20010019728A1 (priority 1997, published 2001).
“And” between values parts separate entries of the source, which are not always exact repeats. Equal values may be shown once.

How the values were obtained:
Details in all cases: in vivo
Xiphinema index = system: Xiphinema index
[1] = system: total plant-parasitic nematode population
Xiphinema americanum = system: Xiphinema americanum
Tylenchorhynchus spp. = system: Tylenchorhynchus spp.
[2] = system: dagger nematode (Xiphinema index+Xiphinema americanum)
Nonparasitic nematodes = system: Nonparasitic nematodes
Fusarium oxysporum = system: Fusarium oxysporum

With `CCOP(=O)(NC(C)C)Oc1ccc(SC)c(C)c1` (stereo not shown) [FENAMIPHOS®, FENAMIPHOS] the “Plant-parasitic Nematode Population: Xiphinema index” value (Xiphinema index) was 30.00a per 250 cc soil, the “population increase in the soil Xiphinema index populations relative to the untreated control” value (Xiphinema index) was 30% and the “reduction of Xiphinema index populations” value (Xiphinema index) was 84%. For the same compound, the “Plant-parasitic Nematode Population: Total” value [1] was 80.00a per 250 cc soil and 94.00a per 250 cc soil and 105.80a per 250 cc soil, the “decrease in overall total plant-parasitic nematode population relative to the untreated control” value [1] was 30% and 31% and the “decrease in overall total plant-parasitic nematodes populations relative to the untreated control” value [1] was 51%. For the same compound, the “reduction in group nematode population without considering the Helicotylenchus nematode species” value [1] was 12%, the “Plant-parasitic Nematode Population: Xiphinema americanum” value (Xiphinema americanum) was 10.00a per 250 cc soil and 9.00a per 250 cc soil and 5.40a per 250 cc soil and the “decrease in the Xiphinema americanum populations relative to the untreated control” value (Xiphinema americanum) was “no effect”. The “decrease of the Xiphinema americanum population relative to T5” value (Xiphinema americanum) was “not controlled”, the “Plant-parasitic Nematode Population: Tylenchorhynchus spp.” value (Tylenchorhynchus spp.) was 0.00a per 250 cc soil and the “reduction in the dagger nematode (Xiphinema index+Xiphinema americanum) populations relative to T5” value [2] was 73%.
`CNC(=S)[S-].[Na+]` [Metham Sodium 1X, Metham sodium] was tested, and the Nonparasitic nematodes (Nonparasitic nematodes) was 944a Nematodes/250 cc soil and 651d Nematodes/250 cc soil.
`CI` [Methyl Iodide 0.5X, Methyl iodide] was tested, and the Fusarium oxysporum (Fusarium oxysporum) was 3.79a Log (cfu/g soil) and 3.44a Log (cfu/g soil).
With `C#CCBr` [Propargyl Bromide, Propargyl bromide] the Fusarium oxysporum (Fusarium oxysporum) was 1.26d Log (cfu/g soil) and 1.10cd Log (cfu/g soil) and the Nonparasitic nematodes (Nonparasitic nematodes) was 1,304a Nematodes/250 cc soil and 1,600cd Nematodes/250 cc soil.
